Measured values as given in the supplement of paper PMC11451515.

System: SEM cells
Experiment: cell viability relative to DMSO control; higher = less cytotoxic
Conditions: 48 h
Summary of the method: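 NOMO1 or SEM cells were plated at 500 cells/well and P12-Ichikawa cells at 1000 cells/well in 1536-well plates (5 μl), after each leukemia line had been adapted for at least four passages in each medium. Pin dosing delivered library compounds in DMSO at 11 threefold concentrations, 47 μM to 0.79 nM. CellTiter-Glo One luminescence was read after 48 h at 37°C. Viability is reported as a per-plate percentage of DMSO wells, with cell-free wells as background.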

[1] = HPLM + 10% dialyzed FBS, 0.000781 µM
[2] = HPLM + 10% dialyzed FBS, 0.00234 µM
[3] = HPLM + 10% dialyzed FBS, 0.00702 µM
[4] = HPLM + 10% dialyzed FBS, 0.0211 µM
[5] = HPLM + 10% dialyzed FBS, 0.0632 µM
[6] = HPLM + 10% dialyzed FBS, 0.19 µM
[7] = HPLM + 10% dialyzed FBS, 0.569 µM
[8] = HPLM + 10% dialyzed FBS, 1.71 µM
[9] = HPLM + 10% dialyzed FBS, 5.12 µM
[10] = HPLM + 10% dialyzed FBS, 15.4 µM
[11] = HPLM + 10% dialyzed FBS, 46.1 µM
[12] = RPMI 5 mM glucose + 10% FBS, 0.000781 µM
[13] = RPMI 5 mM glucose + 10% FBS, 0.00234 µM
[14] = RPMI 5 mM glucose + 10% FBS, 0.00702 µM
[15] = RPMI 5 mM glucose + 10% FBS, 0.0211 µM
[16] = RPMI 5 mM glucose + 10% FBS, 0.0632 µM
[17] = RPMI 5 mM glucose + 10% FBS, 0.19 µM
[18] = RPMI 5 mM glucose + 10% FBS, 0.569 µM
[19] = RPMI 5 mM glucose + 10% FBS, 1.71 µM
[20] = RPMI 5 mM glucose + 10% FBS, 5.12 µM
[21] = RPMI 5 mM glucose + 10% FBS, 15.4 µM
[22] = RPMI 5 mM glucose + 10% FBS, 46.1 µM
[23] = RPMI 5 mM glucose + 10% dialyzed FBS, 0.000781 µM
[24] = RPMI 5 mM glucose + 10% dialyzed FBS, 0.00234 µM
[25] = RPMI 5 mM glucose + 10% dialyzed FBS, 0.00702 µM
[26] = RPMI 5 mM glucose + 10% dialyzed FBS, 0.0211 µM
[27] = RPMI 5 mM glucose + 10% dialyzed FBS, 0.0632 µM
[28] = RPMI 5 mM glucose + 10% dialyzed FBS, 0.19 µM
[29] = RPMI 5 mM glucose + 10% dialyzed FBS, 0.569 µM
[30] = RPMI 5 mM glucose + 10% dialyzed FBS, 1.71 µM
[31] = RPMI 5 mM glucose + 10% dialyzed FBS, 5.12 µM
[32] = RPMI 5 mM glucose + 10% dialyzed FBS, 15.4 µM
[33] = RPMI 5 mM glucose + 10% dialyzed FBS, 46.1 µM

SMILES | cell viability [1] [%] | cell viability [2] [%] | cell viability [3] [%] | cell viability [4] [%] | cell viability [5] [%] | cell viability [6] [%] | cell viability [7] [%] | cell viability [8] [%] | cell viability [9] [%] | cell viability [10] [%] | cell viability [11] [%] | cell viability [12] [%] | cell viability [13] [%] | cell viability [14] [%] | cell viability [15] [%] | cell viability [16] [%] | cell viability [17] [%] | cell viability [18] [%] | cell viability [19] [%] | cell viability [20] [%] | cell viability [21] [%] | cell viability [22] [%] | cell viability [23] [%] | cell viability [24] [%] | cell viability [25] [%] | cell viability [26] [%] | cell viability [27] [%] | cell viability [28] [%] | cell viability [29] [%] | cell viability [30] [%] | cell viability [31] [%] | cell viability [32] [%] | cell viability [33] [%]
CNC(=O)[C@H](Cc1ccccc1)NC(=O)[C@H](CC(C)C)[C@H](CSc1cccs1)C(=O)NO | 83 | 82.9 | 90 | 96 | 87.5 | 110 | 100 | 95.7 | 80.4 | 57.7 | 24.5 | 95.9 | 75.4 | 96.3 | 105 | 74.8 | 90.6 | 89.8 | 97.6 | 77.7 | 45.8 | 25.4 | 86.5 | 69.4 | 75.4 | 82.2 | 67.2 | 81.7 | 90.6 | 78.4 | 70.6 | 40.4 | 21.5
CC(C)(C)/[N+]([O-])=C/c1ccc([S+](=O)([O-])[O][Na])cc1[S+](=O)([O-])[O][Na] | 88.7 | 76.3 | 84.5 | 99.9 | 84.6 | 98.6 | 101 | 90.3 | 88.1 | 99.2 | 94.9 | 115 | 83.1 | 86.9 | 109 | 105 | 124 | 110 | 108 | 116 | 91.2 | 108 | 95.7 | 105 | 102 | 94.1 | 98.8 | 120 | 117 | 104 | 113 | 105 | 110
COc1ccc(Cc2nccc3cc(OC)c(OC)cc23)cc1OC | 105 | 126 | 111 | 131 | 126 | 124 | 127 | 128 | 134 | 121 | 88 | 110 | 125 | 117 | 120 | 131 | 130 | 118 | 109 | 123 | 110 | 53.9 | 109 | 107 | 110 | 110 | 99.5 | 109 | 105 | 118 | 94 | 111 | 54.3
COc1cc2nccc(Oc3ccc(NC(=O)Nc4cc(C)on4)c(Cl)c3)c2cc1OC | 112 | 116 | 107 | 107 | 114 | 102 | 100 | 71.2 | 64.1 | 59.9 | 33.1 | 86.4 | 85.2 | 79.9 | 74.3 | 82.1 | 72.5 | 73.9 | 49.6 | 33 | 31.3 | 14.1 | 112 | 125 | 123 | 107 | 108 | 115 | 112 | 71.5 | 61.3 | 43 | 20.1
COc1cc(N2CCC(C(N)=O)CC2)ccc1Nc1nc(N)c(Cl)c(Nc2ccccc2[S+](=O)([O-])C(C)C)n1 | 81.4 | 83.3 | 87.8 | 96.1 | 82.2 | 104 | 97.6 | 84.1 | 66.5 | 13.3 | 3.39 | 103 | 109 | 107 | 104 | 97.6 | 108 | 120 | 92.9 | 43 | 6.28 | 3.46 | 74.8 | 85.1 | 94.3 | 76.9 | 88.5 | 88.8 | 99.4 | 86 | 69 | 13.2 | 2.73
Cc1ccc(C(C)(O)c2nc3ccccc3s2)c(C)c1 (centres undefined) | 75.7 | 95.1 | 106 | 82.9 | 108 | 114 | 6.4 | 76.6 | 94.2 | 62.4 | 63.5 | 91.7 | 110 | 94.2 | 102 | 107 | 123 | 7.03 | 70.7 | 102 | 61.2 | 63.2 | 77.1 | 112 | 93.7 | 114 | 91.1 | 115 | 8 | 69.7 | 97.4 | 56.5 | 56.6
Clc1cccc(-c2nnnn2Cc2cccnc2)c1Cl | 79.7 | 81.9 | 67 | 92.9 | 101 | 103 | 92.6 | 57.7 | 49.4 | 50.2 | 45 | 101 | 92 | 70.1 | 102 | 95.3 | 95 | 74.6 | 46.4 | 40.4 | 42 | 35.9 | 87.5 | 85.7 | 75 | 93.4 | 91.7 | 99.4 | 102 | 62 | 56 | 58.4 | 46.6
CCCCCCCCCCCC(CC1OC(=O)C1CCCCCC)OC(=O)C(CC(C)C)NC=O (centres undefined) | 86.9 | 82.3 | 96.1 | 99 | 92.8 | 98.8 | 91.4 | 98 | 83.2 | 65.1 | 10.1 | 82.2 | 86.8 | 96.6 | 86.6 | 86.9 | 91.2 | 79.9 | 76.2 | 48.2 | 24.9 | 6.99 | 86.9 | 90.5 | 101 | 82.1 | 105 | 99.4 | 108 | 87.6 | 64.8 | 38.1 | 7.62
